Test results from paper PMC9807592, “New thioxothiazolidinyl-acetamides derivatives as potent urease inhibitors: design, synthesis, in vitro inhibition, and molecular dynamic simulation” (Scientific Reports, 2023).
Values after ≈ are worked out from the molar mass of the structure shown. Where two headings read alike, the source gives them in different places.

Experiments:
[1] = In vitro cytotoxic evaluation (MTT assay); format: cell-based; conditions: human, MOLT-4 cells
Description: MOLT-4 (human acute lymphoblastic leukemia) cells were cultures in RPMI-1640 medium supplemented with 10% heat-inactivated fetal bovine serum. Cell viability was measured by the MTT assay. MOLT-4 cells were seeded into 96-well micro-culture plates. After 24 h, the culture medium was replaced with a medium containing different concentrations of newly synthesized derivatives. Control wells were supplemented with the same volume of growth medium not containing any drugs. Cells were then incubated at 37 °C for 72 h. At the end of the exposure time, the medium was removed and MTT solution of 0.5 mg/ml was added to each well. The plates were incubated at 37 °C for 4 h, after which DMSO was added to each well to solubilize the formed formazan crystals, and the absorbance of each well was read with a microplate reader at 570 nm.

C. albicans ATCC 10261 = test: Antimicrobial activity, broth microdilution (CLSI); format: cell-based; conditions: Candida albicans, ATCC10261
Description: The antimicrobial activity of designed compounds was investigated using broth microdilution.
(§1) Briefly, twofold serial dilutions of the compounds were prepared in Mueller–Hinton Broth (MHB, HiMedia) for bacterial strains and RPMI-1640 (Sigma-Aldrich) for yeast strain (Ranging 1–512 µg/ml). Then, 100 μL of each dilution was transferred into the well of a microtiter plate and inoculated with 100 μL of cell suspension with a final density of 1–5 × 10^3 CFU/ml for yeasts and 1–1.5 × 10^6 cells/ml for bacteria. Plates were incubated at proper temperature overnight, and the minimum inhibitory concentration (MIC) of compounds was determined as the lowest concentration that prevented visible growth of tested microorganisms compared with the growth in the control wells (wells without tested compounds). Moreover, the minimum bactericidal/fungicidal concentration (MBC/MFC) of compounds was determined by transferring the 10 µl of clear wells into the agar media. Standard antibacterial and antifungal agents (Ciprofloxacin and Fluconazole) were evaluated. All experiments were performed in duplicate[30],[31].

E. coli ATCC 25922 = test: Antimicrobial activity, broth microdilution (CLSI); format: cell-based
Description: (§2) Then, 100 μL of each dilution was transferred into the well of a microtiter plate and inoculated with 100 μL of cell suspension with a final density of 1–5 × 10^3 CFU/ml for yeasts and 1–1.5 × 10^6 cells/ml for bacteria. Plates were incubated at proper temperature overnight, and the minimum inhibitory concentration (MIC) of compounds was determined as the lowest concentration that prevented visible growth of tested microorganisms compared with the growth in the control wells (wells without tested compounds). […] All experiments were performed in duplicate[30],[31].

[2] = test system: clinical isolate of P. vulgaris; test: Antimicrobial activity, broth microdilution (CLSI); format: cell-based; conditions: Proteus vulgaris
Description: as §2

S. aureus ATCC 25923 = test: Antimicrobial activity, broth microdilution (CLSI); format: cell-based; conditions: Staphylococcus aureus, ATCC25923
Description: as §2

urease = urease (Canavalia ensiformis, UniProt P07374); test: biochemical; format: biochemical
Chain of urease (P07374 whole entry, looked up): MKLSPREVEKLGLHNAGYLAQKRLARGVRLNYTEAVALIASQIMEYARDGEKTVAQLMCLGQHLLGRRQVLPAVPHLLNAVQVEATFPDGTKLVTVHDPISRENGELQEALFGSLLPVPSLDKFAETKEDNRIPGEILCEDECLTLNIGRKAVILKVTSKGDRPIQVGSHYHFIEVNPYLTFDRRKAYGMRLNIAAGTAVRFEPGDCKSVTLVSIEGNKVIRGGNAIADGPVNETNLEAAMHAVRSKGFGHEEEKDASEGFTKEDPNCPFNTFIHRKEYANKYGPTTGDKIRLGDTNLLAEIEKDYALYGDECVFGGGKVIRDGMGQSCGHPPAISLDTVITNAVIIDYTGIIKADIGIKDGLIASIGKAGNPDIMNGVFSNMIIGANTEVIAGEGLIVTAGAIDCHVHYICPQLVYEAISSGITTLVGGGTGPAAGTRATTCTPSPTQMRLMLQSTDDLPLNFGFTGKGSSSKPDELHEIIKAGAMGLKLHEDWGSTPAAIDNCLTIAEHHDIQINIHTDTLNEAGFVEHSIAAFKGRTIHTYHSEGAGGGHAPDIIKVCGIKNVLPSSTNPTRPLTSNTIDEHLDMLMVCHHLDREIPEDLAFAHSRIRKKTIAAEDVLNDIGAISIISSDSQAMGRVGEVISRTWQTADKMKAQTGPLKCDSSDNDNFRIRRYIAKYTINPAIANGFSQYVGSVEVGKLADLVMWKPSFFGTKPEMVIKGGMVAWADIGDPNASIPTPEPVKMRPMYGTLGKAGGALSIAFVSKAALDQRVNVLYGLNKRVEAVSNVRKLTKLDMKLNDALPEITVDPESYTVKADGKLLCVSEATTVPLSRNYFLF
Description: The assay was performed exactly according to our previous report. Briefly, 850 μL of urea and 15 μL urease (0.135 units dissolved in PBS, pH 7.4) were added to 100 μL of the synthesized derivatives at different concentrations. After 30 min, to 100 μL of the incubated solution, 500 μL solution I (5.0 g phenol and 25.0 mg sodium nitroprusside in 500 mL water) was added followed by the addition of 500 μL of solution II (2.5 g sodium hydroxide, 4.2 mL sodium hypochlorite, and 5% chlorine in 500 mL water) which was further incubated at 37 °C for 30 min. The absorbance was determined by measuring indophenols at 625 nm. Thiourea was used as the standard inhibitor for urease. The IC50 values for all synthesized compounds were calculated using GraphPad Prism software (GraphPad Software, Inc., San Diego, CA)[20].

[3] = test system: methicillin-resistant Staphylococcus aureus (MRSA) isolates; test: Antimicrobial activity against resistant isolates; format: cell-based
Description: Regarding the antibacterial activity of 6n and 6o against the standard strain of S. aureus, these derivatives were tested against methicillin-resistant Staphylococcus aureus (MRSA) isolates.
as §1

S. aureus biofilm = test: Inhibition of biofilm formation (crystal violet assay); format: cell-based; conditions: Staphylococcus aureus, read-out: inhibition in the development of biofilm by S. aureus
Description: To evaluate the ability of the synthesized compounds 6a-i to prevent biofilm formation by standard species of S. aureus (ATCC25923) and MRSA strain, biofilms were pre-formed in 96 well plates, as previously described. Firstly, bacterial strains were inoculated into Tryptic Soy Broth (TSB) medium. The cells were cultivated on a shaker overnight for 180 r/min at 37 °C. Then, the suspension was centrifuged, and the cells were washed with PBS three times. Diluted cell suspension of strains was added into the wells with 1 × 10^6 final concentration. The plates were incubated for 4 h at 37 °C. After that, 100 μl of each of the dissolved compounds was added to a final concentration of […] in the wells. The plates were further incubated for 24 h at 37 °C. Following incubation, the crystal violet assay was performed to evaluate the inhibition of biofilm formation. For this purpose, the supernatant of the wells was aspirated gently, and the wells were washed three times with sterile distilled water. […] Assessment of biofilm formation was performed by transferring 100 μl of the destaining solution to a new plate and measuring the absorbance at 590 nm using a microplate reader. […] The mean absorbance (OD590 nm) of the samples was determined, and percentage inhibition was obtained using Eq. (1) as follows: 1 Percentageinhibition:ODblank-ODtest×100/ODblank

[4] = Escherichia coli, ATCC25922, read-out: MIC

| SMILES | viability at 72 h, 100 µM [1] | MIC (C. albicans ATCC 10261) | MIC (E. coli ATCC 25922) | MBC (E. coli ATCC 25922; Escherichia coli, ATCC25922) | MIC (E. coli ATCC 25922; [4]) | MIC [2] | MBC (S. aureus ATCC 25923) | MIC (S. aureus ATCC 25923) | IC50 (urease) | melting point | MIC [3] | inhibition at 512 µg/mL (S. aureus biofilm) |
| --- | --- | --- | --- | --- | --- | --- | --- | --- | --- | --- | --- | --- |
| C=CCNC(=O)CC1SC(=S)N(CC(C)C)C1=O (stereo not shown) [Compound 6o, N-allyl-2-(3-isobutyl-4-oxo-2-thioxothiazolidin-5-yl)acetamide] | 97.3 ± 3.5% | > 512 mg/L | 512 mg/L (≈ 1790 µM) | > 512 mg/L | 512 mg/L (≈ 1790 µM) | > 512 mg/L | 256 mg/L (≈ 894 µM) | 128 mg/L (≈ 447 µM) | 9.27 ± 1.65 µM | 164 to 166 °C | 512 mg/L (≈ 1790 µM) | 27% |
| CCCNC(=O)CC1SC(=S)N(CC(C)C)C1=O (stereo not shown) [Compound 6n, 2-(3-isobutyl-4-oxo-2-thioxothiazolidin-5-yl)-N-propylacetamide] | 96.4 ± 2.2% | > 512 mg/L | – | – | > 512 mg/L | > 512 mg/L | > 512 mg/L | 128 mg/L (≈ 444 µM) | 2.38 ± 0.49 µM | 160 to 162 °C | 128 mg/L (≈ 444 µM) | 37% |
